Earlier results as cited in patent US20210095260A1, “BI- OR MULTI-DIFFERENTIATED ORGANOID” (IMBA - INSTITUT FÜR MOLEKULARE BIOTECHNOLOGIE GMBH, priority 2017, published 2021).

Tested on: hPSCs
Details: inhibition of SHH activity; cited from earlier work

SMILES: CC1=C2C[C@H]3[C@@H](CC=C4C[C@@H](O)CC[C@@]43C)[C@@H]2CC[C@]12O[C@@H]1C[C@H](C)CN[C@H]1[C@H]2C [CycA, cyclopamine A]
- dorsal forebrain identity: can enhance dorsal forebrain identity
